The values below come from publication PMC4231056, “Dihydroflavonol 4-Reductase Genes Encode Enzymes with Contrasting Substrate Specificity and Show Divergent Gene Expression Profiles in Fragaria Species” (PLoS ONE, 2014).

Data set [1] has as its target T1, DFR2s (recombinant, F. vesca) (Fragaria vesca, UniProt A0A0A0PVL5).
T1 construct: gene DFR; full-length ORF, 349 residues; expressed in yeast from pYES vector; not purified; result stated for all clones together
T1 sequence (A0A0A0PVL5 1-349): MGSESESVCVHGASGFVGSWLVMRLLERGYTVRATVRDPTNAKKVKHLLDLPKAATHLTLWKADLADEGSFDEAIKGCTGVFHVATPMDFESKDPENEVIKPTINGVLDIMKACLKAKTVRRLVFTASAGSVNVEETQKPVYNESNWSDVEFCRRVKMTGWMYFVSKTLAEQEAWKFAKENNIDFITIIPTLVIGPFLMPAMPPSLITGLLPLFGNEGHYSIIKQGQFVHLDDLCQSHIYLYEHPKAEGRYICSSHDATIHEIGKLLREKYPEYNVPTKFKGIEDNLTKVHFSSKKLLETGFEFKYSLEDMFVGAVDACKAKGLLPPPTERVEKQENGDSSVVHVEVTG
The data set is described as follows: radiolabelled turnover assay, yeast protein preparation. The data set is classed as biochemical. Particulars: NADPH; labelled compound (14C).

For data set [2], the target named is T2, DFR1s (recombinant, F. vesca) (Fragaria vesca, UniProt A0A0A0PTI9).
T2 construct: gene DFR; full-length ORF, 333 residues; expressed in yeast from pYES vector; not purified; result stated for all clones together
T2 sequence (A0A0A0PTI9 1-333): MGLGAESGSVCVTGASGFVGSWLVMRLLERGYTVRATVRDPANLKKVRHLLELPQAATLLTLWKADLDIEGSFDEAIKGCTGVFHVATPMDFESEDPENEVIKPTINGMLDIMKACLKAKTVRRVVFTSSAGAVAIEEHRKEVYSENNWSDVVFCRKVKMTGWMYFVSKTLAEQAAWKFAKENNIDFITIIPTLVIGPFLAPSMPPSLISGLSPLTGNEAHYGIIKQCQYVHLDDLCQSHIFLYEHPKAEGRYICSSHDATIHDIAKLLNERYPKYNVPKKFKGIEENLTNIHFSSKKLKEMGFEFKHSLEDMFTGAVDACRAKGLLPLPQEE
Described as above. Type of data set: biochemical. The note with it: NADPH; labelled compound (14C).

Substrate in data set [3]: O=C1c2c(O)cc(O)cc2O[C@H](c2ccc(O)cc2)[C@H]1O
The experiment in a line: radiolabelled TLC assay, Lineweaver-Burk, yeast protein preparation. Type of data set: biochemical, Fragaria x ananassa. The note with it: NADPH; optimised conditions (pH optimum 6.00); labelled compound (14C); K cat is per kg protein, a specific rate. An excerpt:
radiolabelled TLC assay, Lineweaver-Burk, yeast protein preparation on DFR1 (recombinant, KC894048)

Substrate in data set [4]: O=C1c2c(O)cc(O)cc2O[C@H](c2cc(O)c(O)c(O)c2)[C@H]1O
The data set is described as above. The data set is classed as biochemical, Fragaria x ananassa. Particulars: NADPH; optimised conditions (pH optimum 5.75); labelled compound (14C); K cat is per kg protein, a specific rate. An excerpt:
(§1) radiolabelled TLC assay, Lineweaver-Burk, yeast protein preparation on DFR2 (recombinant, KC894055)

Substrate in data set [5]: O=C1c2c(O)cc(O)cc2O[C@H](c2ccc(O)c(O)c2)[C@H]1O
The data set is described as above. The note with it: NADPH; optimised conditions (pH optimum 6.25); labelled compound (14C); K cat is per kg protein, a specific rate. Type of data set: biochemical, Fragaria x ananassa.
Text: as §1

`O=C1c2c(O)cc(O)cc2O[C@H](c2cc(O)c(O)c(O)c2)[C@H]1O` [DHM]: the “radiolabelled turnover assay, yeast protein preparation” value in data set [1] was “The recombinant DFR2s converted DHQ and DHM to leucocyanidin and leucodelphinidin”.
Same read-out and setting: in the case of `O=C1c2c(O)cc(O)cc2O[C@H](c2ccc(O)c(O)c2)[C@H]1O` [DHQ] it was “The recombinant DFR2s converted DHQ and DHM to leucocyanidin and leucodelphinidin”.
Consider `O=C1c2c(O)cc(O)cc2O[C@H](c2ccc(O)cc2)[C@H]1O` [DHK], for which the “radiolabelled turnover assay, yeast protein preparation” value in data set [2] is given as “Recombinant DFR1 s, in contrast, were selective for DHK”.

B1: DFR1 (recombinant, KC894048) (Fragaria x ananassa) (protein)
chain: MGLGAESGSVCVTGASGFVGSWLVMRLLEHGYTVRATVRDPANLKKVRHLLELPQAATRLTLWKADLDVEGSFDEAIKGCTGVFHVATPMDFESEDPENEVIKPTINGMLDIMKACLKAKTVRRVVFTSSAGAVAIEEHRKEVYSENNWSDVVFCRKVKMTGWMYFVSKTLAEQAAWKFAKENNIDFITIIPTLVIGPFLAPSMPPSLISGLSPLTGNEAHYGIIKQCQYVHLDDLCQSHIFLYEHPKAEGRYICSSHDATIHDIAKLLNEKYPKYNVPKKFKGIEENLTNIHFSSKKLKEMGFEFKHSLEDMFTGAVDACREKGLLPLPQEEETEKRRAG
notes: full-length ORF, 341 residues; expressed in yeast INVSc1 from pYES2.1/V5-His-TOPO; reverse primer starts with the stop codon; cell protein preparation, not purified
Usually Km stands for the substrate concentration at which the rate is half of its maximum. As for B1, the Km in data set [3] was 0.40 µM.

B2: DFR2 (recombinant, KC894055) (Fragaria x ananassa) (protein)
chain: MGSESESVCVTGASGFVGSWLVMRLLERGYTVRATVRDPTNAKKVKHLLDLPKAATHLTLWKADLADEGSFDEAIKGCSGVFHVATPMDFESKDPENEVIKPTINGVLDIMKACLKAKTVRRLVFTASAGSVNVEETQKPVYNESNWSDVEFCRRVKMTGWMYFVSKTLAEQEAWKFAKENNIDFITIIPTLVIGPFLMPAMPPSLITGLSPLFGNEGHYSIIKQGQFVHLDDLCQSHIYLYEHPKAEGRYICSSHDATIHEIAKLLREKYPEYNVPTKFKGIEDNLTKVHFSSKKLLETGFEFKYSLEDMFVGAVDACKAKGLLPPPTERVEKQEAGDSGVVHVEVTG
notes: full-length ORF, 349 residues; expressed in yeast INVSc1 from pYES2.1/V5-His-TOPO; reverse primer holds the stop codon; cell protein preparation, not purified
Consider B2, for which the Km in data set [4] came out at 2.3 µM; in data set [5] it was 0.40 µM.
